Calls of active or inactive are those of the source.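 How the source made its calls: active means at least one rat sex group has a carcinogenic potency value and tumor site recorded; inconclusive means only rat studies were judged inadequate by the national testing program; inactive means no potency or tumor site, with negative rat experiments.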
System: rat chronic carcinogenicity bioassay, TD50
Test: DSSTox (CPDBAS) Carcinogenic Potency Database Summary Rat Bioassay Results
Conditions: for outcome: TD50_Rat_Note: no positive results; for Potency: stronger effect = lower value
Outline: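 The activity score maps log10(1/TD50_Rat_mmol) linearly onto 1–100; actives without a computed TD50, such as mixtures, receive 50. Source data are chronic rat carcinogenicity tests, using the most positive experiment for each sex.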

[1] = TargetSites_Rat_Female: no positive results
[2] = TD50_Rat_Note: TD50 is harmonic mean of more than one positive test, TargetSites_Rat_Female: liver
[3] = TargetSites_Rat_BothSexes: hematopoietic system

C=C1C(CCl)(CCl)C2(Cl)C(Cl)C(Cl)C1(Cl)C2(Cl)Cl (stereo not given)
outcome [1]: inactive; no positive results

O=NN1CCCC1c1ccc[n+]([O-])c1 (stereo not given)
Potency (TD50_Rat_Note: TD50 is harmonic mean of more than one positive test, TargetSites_Rat_Female: esophagus, nasal cavity): 0.876 mg/kg/day

CN(C)Nc1nc(-c2ccc([N+](=O)[O-])o2)cs1
Potency (TD50_Rat_Note: harmonic mean of TD50 includes a value for upper 99% confidence limit from study with 100% tumor incidence but no lifeta, TargetSites_Rat_Female: hematopoietic system, mammary gland): 0.41 mg/kg/day

C[C@]12CC[C@H](O)CC1=CC[C@@H]1[C@@H]2CC[C@]2(C)C(=O)CC[C@@H]12
Potency [2]: 83.5 mg/kg/day

CCN(Cc1cccc(S(=O)(=O)O)c1)c1ccc(C(=C2C=CC(=[N+](CC)Cc3cccc(S(=O)(=O)[O-])c3)C=C2)c2ccc(S(=O)(=O)O)cc2)cc1
Potency [3]: 5640 mg/kg/day

CCN(N=O)C(=O)NCCO
Potency (TD50_Rat_Note: TD50 is harmonic mean of more than one positive test, TargetSites_Rat_Female: mammary gland, skin, uterus): 0.522 mg/kg/day

C=O
Potency (TD50_Rat_Note: TD50 is harmonic mean of more than one positive test, greater than ten-fold variation among TD50 values for positive res, TargetSites_Rat_Female: hematopoietic system, nasal cavity): 1.35 mg/kg/day

O=P(OC(CCl)CCl)(OC(CCl)CCl)OC(CCl)CCl
Potency (TD50_Rat_Note: TD50 is harmonic mean of more than one positive test, TargetSites_Rat_Female: kidney, liver): 46.4 mg/kg/day

O=C1CN(/N=C/c2ccc([N+](=O)[O-])o2)C(=O)N1
Potency [1]: 163 mg/kg/day

C[C@@H]1C/C=C/C=C/C=C/C=C/[C@H](O[C@@H]2O[C@H](C)[C@@H](O)[C@H](N)[C@@H]2O)C[C@@H]2O[C@](O)(C[C@@H](O)C[C@H]3O[C@@H]3/C=C/C(=O)O1)C[C@H](O)[C@H]2C(=O)O
outcome [1]: inactive; no positive results

CN(C)CCOC(c1ccccc1)c1ccccc1
outcome [1]: inactive; no positive results

CC1CCC(C(C)C)C(O)C1 (stereo not given)
outcome [1]: inactive; no positive results

C=C(C)C#N
outcome [1]: inactive; no positive results

C[C@]12CCC(=O)C=C1CC[C@@H]1[C@@H]2[C@@H](O)C[C@@]2(C)[C@H]1CC[C@]2(O)C(=O)CO
outcome [1]: inactive; no positive results

NC(=O)NC1NC(=O)NC1=O (stereo not given)
outcome [1]: inactive; no positive results

c1ccc2n[nH]nc2c1
outcome [1]: inactive; no positive results

CCCCNC(=O)N(CCCC)N=O
Potency (TargetSites_Rat_Female: hematopoietic system, mammary gland): 4.28 mg/kg/day

O=S(=O)(O)c1cc(S(=O)(=O)O)c2c(N=Nc3ccc(S(=O)(=O)O)c4ccccc34)c(O)ccc2c1
Potency (TargetSites_Rat_BothSexes: all tumor bearing animals): 24500 mg/kg/day

Oc1cc2c(cc1O)[C@H]1c3ccc(O)c(O)c3OC[C@@]1(O)C2
Potency [3]: 1000 mg/kg/day

ClCC(Cl)CCl
Potency (TD50_Rat_Note: TD50 is harmonic mean of more than one positive test, TargetSites_Rat_Female: clitoral gland, ear Zymbals gland, mammary gland, oral cavity, stomach): 1.35 mg/kg/day

CC1(C)[C@@H](O)CC[C@]2(C)[C@H]3C(=O)C=C4[C@@H]5C[C@@](C)(C(=O)O)CC[C@]5(C)CC[C@@]4(C)[C@]3(C)CC[C@@H]12
outcome: inactive; no positive results

Nc1ccc(S(=O)(=O)c2ccc(N)cc2)cc1
Potency [1]: 22.4 mg/kg/day

NC(=O)N(CC(=O)O)N=O
Potency (TD50_Rat_Note: TD50 is harmonic mean of more than one positive test, greater than ten-fold variation among TD50 values for positive res, TargetSites_Rat_Female: mammary gland, small intestine): 4.31 mg/kg/day

c1ccc(Nc2ccc3ccccc3c2)cc1
outcome [1]: inactive; no positive results

Nc1ccc(Cl)cc1
outcome [1]: inactive; no positive results
Potency [1]: 7.62 mg/kg/day

NNc1nc(-c2ccc([N+](=O)[O-])cc2)cs1
Potency (TD50_Rat_Note: TD50 is harmonic mean of more than one positive test, TargetSites_Rat_Female: mammary gland): 3.21 mg/kg/day

Nc1ccc(Cc2ccc(N)cc2)cc1
Potency (TD50_Rat_Note: TD50 is harmonic mean of more than one positive test, TargetSites_Rat_Female: thyroid gland): 20 mg/kg/day

CC(O)CN(N=O)C(=O)NCCCl (stereo not given)
Potency [2]: 0.873 mg/kg/day

ClC1=C(Cl)[C@]2(Cl)[C@@H]3[C@@H]4C[C@@H]([C@H]5O[C@@H]45)[C@@H]3[C@@]1(Cl)C2(Cl)Cl
outcome [1]: inactive; no positive results

Oc1ccc(Cl)cc1Cc1ccccc1
outcome [1]: inactive; no positive results

CN[C@H]1CCc2cc(OC)c(OC)c(OC)c2-c2ccc(OC)c(=O)cc21
outcome: inactive; no positive results

Clc1ccc2c(c1)C(c1ccccc1)=NCc1nncn1-2
outcome [1]: inactive; no positive results

C=CCN=C=S
Potency [1]: 96 mg/kg/day

O=S(=O)(O)c1c(N=Nc2c(O)ccc3ccccc23)ccc2ccccc12
outcome [1]: inactive; no positive results

O=[N+]([O-])c1ccc(-c2nc(N(CCO)CCO)c3ccccc3n2)s1
Potency: 3.14 mg/kg/day

CCCN(CCC)c1ccc(N=Nc2cc[n+]([O-])cc2)cc1
outcome: inactive; no positive results

c1ccc2occc2c1
Potency (TargetSites_Rat_Female: kidney): 424 mg/kg/day

CCCCCCCCCCCCC(=O)COC1=C(O)C(=O)O[C@@H]1[C@@H](O)CO
outcome [1]: inactive

Cc1cc(C)c(N)cc1C
Potency (TD50_Rat_Note: TD50 is harmonic mean of more than one positive test, TargetSites_Rat_Female: liver, lung): 33.6 mg/kg/day
Potency (TD50_Rat_Note: no positive results are statistically significant): 98.5 mg/kg/day

CCc1ccccc1
Potency (TD50_Rat_Note: TD50 is harmonic mean of more than one positive test, greater than ten-fold variation among TD50 values for positive res, TargetSites_Rat_Female: Maltoni head cancers, kidney): 72.6 mg/kg/day

Clc1c(Cl)c(Cl)c(Cl)c(Cl)c1Cl
Potency (TD50_Rat_Note: TD50 is harmonic mean of more than one positive test, harmonic mean of TD50 includes a value for upper 99% confidence li, TargetSites_Rat_Female: liver): 3.86 mg/kg/day

CN(C)CCOc1ccc(/C(=C(/CCCl)c2ccccc2)c2ccccc2)cc1
outcome [1]: inactive; no positive results

CC(Oc1c(Cl)cccc1Cl)C1=NCCN1 (stereo not given)
outcome [1]: inactive; no positive results
